From PubChem BioAssay AID1963431 (Molecular Pharmacology Branch, DTP, NCI, 2024)
pIC50: −log10 of the molar value. Each block holds one compound with its values, some of them ahead of it.

Test system: Rh18 complex spheroid viability, percent test/control
Test: Anticancer human tumor Rh18 cell line growth inhibition [Asc];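 further: spheroids exposed to compound for 7 days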;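 on viability, T/C: 100% = DMSO vehicle control wells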
Conditions: for pIC50: curve of first compound; for viability, T/C: stronger effect = lower value
Summary of the method: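 Stromal components (HUVEC and hMSC) are co-assembled with the cancer cells into multicellular spheroids. Drugs are then added singly or paired, at concentrations falling by half-log increments from a clinically achievable maximum, capped at 10 microM without known Cmax.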

[1] = second compound 0.03 µM, first compound 0.0316 µM
[2] = second compound 0.03 µM, first compound 0.1 µM
[3] = second compound 0.03 µM, first compound 0.316 µM
[4] = second compound 0.03 µM, first compound 1 µM
[5] = second compound 0.03 µM, first compound 3.16 µM
[6] = second compound 0.03 µM, first compound 10 µM
[7] = second compound 0.0949 µM, first compound 0.0316 µM
[8] = second compound 0.0949 µM, first compound 0.1 µM
[9] = second compound 0.0949 µM, first compound 0.316 µM
[10] = second compound 0.0949 µM, first compound 1 µM
[11] = second compound 0.0949 µM, first compound 3.16 µM
[12] = second compound 0.0949 µM, first compound 10 µM
[13] = second compound 0.3 µM, first compound 0.0316 µM
[14] = second compound 0.3 µM, first compound 0.1 µM
[15] = second compound 0.3 µM, first compound 0.316 µM
[16] = second compound 0.3 µM, first compound 1 µM
[17] = second compound 0.3 µM, first compound 3.16 µM
[18] = second compound 0.3 µM, first compound 10 µM
[19] = second compound 0.949 µM, first compound 0.0316 µM
[20] = second compound 0.949 µM, first compound 0.1 µM
[21] = second compound 0.949 µM, first compound 0.316 µM
[22] = second compound 0.949 µM, first compound 1 µM
[23] = second compound 0.949 µM, first compound 3.16 µM
[24] = second compound 0.949 µM, first compound 10 µM
[25] = second compound 3 µM, first compound 0.0316 µM
[26] = second compound 3 µM, first compound 0.1 µM
[27] = second compound 3 µM, first compound 0.316 µM
[28] = second compound 3 µM, first compound 1 µM
[29] = second compound 3 µM, first compound 3.16 µM
[30] = second compound 3 µM, first compound 10 µM
[31] = second compound 0.03 µM, first compound 0.00316 µM
[32] = second compound 0.03 µM, first compound 0.01 µM
[33] = second compound 0.0949 µM, first compound 0.00316 µM
[34] = second compound 0.0949 µM, first compound 0.01 µM
[35] = second compound 0.3 µM, first compound 0.00316 µM
[36] = second compound 0.3 µM, first compound 0.01 µM
[37] = second compound 0.949 µM, first compound 0.00316 µM
[38] = second compound 0.949 µM, first compound 0.01 µM
[39] = second compound 3 µM, first compound 0.00316 µM
[40] = second compound 3 µM, first compound 0.01 µM

SMILES: C#Cc1c(F)ccc2cc(O)cc(-c3ncc4c(N5CC6CCC(C5)N6)nc(OCC56CCCN5CC(F)C6)nc4c3F)c12 (stereo not given) + CCN1C(C(=O)NC23CCC(C(=O)O)(CC2)CC3)C(c2cccc(Cl)c2F)C2(C(=O)Nc3cc(Cl)ccc32)C12CCCCC2
pIC50 (second compound 0.03 µM): > 7.50 | pIC50 (second compound 0.0949 µM): > 7.50 | pIC50 (second compound 0.3 µM): > 7.50 | pIC50 (second compound 0.949 µM): > 7.50 | pIC50 (second compound 3 µM): > 7.50 | viability, T/C [1]: 42.7% | viability, T/C [2]: 45.1% | viability, T/C [3]: 43.9% | viability, T/C [4]: 40.4% | viability, T/C [5]: 41.8% | viability, T/C [6]: 46.6% | viability, T/C [7]: 25.1% | viability, T/C [8]: 24.1% | viability, T/C [9]: 22.1% | viability, T/C [10]: 28.2% | viability, T/C [11]: 23.6% | viability, T/C [12]: 25.3% | viability, T/C [13]: 13.1% | viability, T/C [14]: 13.9% | viability, T/C [15]: 14.4% | viability, T/C [16]: 12.6% | viability, T/C [17]: 15.6% | viability, T/C [18]: 13.7% | viability, T/C [19]: 11.7% | viability, T/C [20]: 12.7% | viability, T/C [21]: 11% | viability, T/C [22]: 12.4% | viability, T/C [23]: 12.3% | viability, T/C [24]: 10.5% | viability, T/C [25]: 8.99% | viability, T/C [26]: 12.6% | viability, T/C [27]: 12.4% | viability, T/C [28]: 11.5% | viability, T/C [29]: 8.93% | viability, T/C [30]: 11.6%

SMILES: C=CC(=O)N1CCN(c2nc(=O)n(-c3c(C)ccnc3C(C)C)c3nc(-c4c(O)cccc4F)c(F)cc23)C(C)C1 (stereo not given) + CCN1C(C(=O)NC23CCC(C(=O)O)(CC2)CC3)C(c2cccc(Cl)c2F)C2(C(=O)Nc3cc(Cl)ccc32)C12CCCCC2
pIC50 (second compound 0.03 µM): > 7.50 | pIC50 (second compound 0.0949 µM): > 7.50 | pIC50 (second compound 0.3 µM): > 7.50 | pIC50 (second compound 0.949 µM): > 7.50 | pIC50 (second compound 3 µM): > 7.50 | viability, T/C [1]: 37.6% | viability, T/C [2]: 36.2% | viability, T/C [3]: 46.5% | viability, T/C [4]: 46.7% | viability, T/C [5]: 58.2% | viability, T/C [6]: 60.7% | viability, T/C [7]: 23.6% | viability, T/C [8]: 19.3% | viability, T/C [9]: 24.4% | viability, T/C [10]: 23.5% | viability, T/C [11]: 30.1% | viability, T/C [12]: 25.4% | viability, T/C [13]: 13.3% | viability, T/C [14]: 13.7% | viability, T/C [15]: 15% | viability, T/C [16]: 12.9% | viability, T/C [17]: 15.6% | viability, T/C [18]: 16% | viability, T/C [19]: 9.37% | viability, T/C [20]: 9.94% | viability, T/C [21]: 11.2% | viability, T/C [22]: 9.73% | viability, T/C [23]: 14.4% | viability, T/C [24]: 12.8% | viability, T/C [25]: 9.88% | viability, T/C [26]: 10% | viability, T/C [27]: 9.57% | viability, T/C [28]: 11.9% | viability, T/C [29]: 13.1% | viability, T/C [30]: 14.1%

SMILES: COc1c(OCCCN2CCOCC2)ccc2c3n(c(=NC(=O)c4cnc(N)nc4)nc12)CCN3 + CCN1C(C(=O)NC23CCC(C(=O)O)(CC2)CC3)C(c2cccc(Cl)c2F)C2(C(=O)Nc3cc(Cl)ccc32)C12CCCCC2
pIC50 (second compound 0.03 µM): > 8.50 | pIC50 (second compound 0.0949 µM): > 8.50 | pIC50 (second compound 0.3 µM): > 8.50 | pIC50 (second compound 0.949 µM): > 8.50 | pIC50 (second compound 3 µM): > 8.50 | viability, T/C [31]: 36.4% | viability, T/C [32]: 27.2% | viability, T/C [1]: 15.1% | viability, T/C [2]: 6.81% | viability, T/C [3]: 3.01% | viability, T/C [4]: 0.78% | viability, T/C [33]: 17.8% | viability, T/C [34]: 16.1% | viability, T/C [7]: 9.67% | viability, T/C [8]: 4.3% | viability, T/C [9]: 1.95% | viability, T/C [10]: 0.74% | viability, T/C [35]: 11% | viability, T/C [36]: 11% | viability, T/C [13]: 6.7% | viability, T/C [14]: 3.81% | viability, T/C [15]: 1.38% | viability, T/C [16]: 0.96% | viability, T/C [37]: 10.3% | viability, T/C [38]: 9.29% | viability, T/C [19]: 5.17% | viability, T/C [20]: 2.9% | viability, T/C [21]: 1.19% | viability, T/C [22]: 0.83% | viability, T/C [39]: 10.2% | viability, T/C [40]: 8.55% | viability, T/C [25]: 7.12% | viability, T/C [26]: 3.01% | viability, T/C [27]: 3.28% | viability, T/C [28]: 1.16%

Second part, led by results:

pIC50 (second compound 0.03 µM): > 7.50 | pIC50 (second compound 0.0949 µM): > 7.50 | pIC50 (second compound 0.3 µM): > 7.50 | pIC50 (second compound 0.949 µM): > 7.50 | pIC50 (second compound 3 µM): > 7.50
SMILES: C=C(F)C(=O)N1CCN(c2nc(OCC3CCCN3C)nc3c2CCN(c2cccc4cccc(Cl)c24)C3)CC1CC#N (stereo not given) + CCN1C(C(=O)NC23CCC(C(=O)O)(CC2)CC3)C(c2cccc(Cl)c2F)C2(C(=O)Nc3cc(Cl)ccc32)C12CCCCC2
viability, T/C [1]: 25.2% | viability, T/C [2]: 28.7% | viability, T/C [3]: 35.2% | viability, T/C [4]: 32.9% | viability, T/C [5]: 31.6% | viability, T/C [6]: 0.2% | viability, T/C [7]: 19.6% | viability, T/C [8]: 20.5% | viability, T/C [9]: 17.7% | viability, T/C [10]: 18.5% | viability, T/C [11]: 7.46% | viability, T/C [12]: 0.15% | viability, T/C [13]: 10.7% | viability, T/C [14]: 10.4% | viability, T/C [15]: 9.23% | viability, T/C [16]: 7.64% | viability, T/C [17]: 3.23% | viability, T/C [18]: 0.14% | viability, T/C [19]: 8.48% | viability, T/C [20]: 8.88% | viability, T/C [21]: 8.35% | viability, T/C [22]: 6.27% | viability, T/C [23]: 2.4% | viability, T/C [24]: 0.14% | viability, T/C [25]: 7.28% | viability, T/C [26]: 7.78% | viability, T/C [27]: 8.39% | viability, T/C [28]: 5.04% | viability, T/C [29]: 2.37% | viability, T/C [30]: 0.17%

pIC50 (second compound 0.03 µM): > 8.50 | pIC50 (second compound 0.0949 µM): > 8.50 | pIC50 (second compound 0.3 µM): > 8.50 | pIC50 (second compound 0.949 µM): > 8.50 | pIC50 (second compound 3 µM): > 8.50
SMILES: CNC(C)C(=O)NC1CN(S(=O)(=O)c2cccc(S(=O)(=O)N3CCC4CCC(C(=O)NC(c5ccccc5)c5ccccc5)N4C(=O)C(NC(=O)C(C)NC)C3)c2)CCC2CCC(C(=O)NC(c3ccccc3)c3ccccc3)N2C1=O (stereo not given) + CCN1C(C(=O)NC23CCC(C(=O)O)(CC2)CC3)C(c2cccc(Cl)c2F)C2(C(=O)Nc3cc(Cl)ccc32)C12CCCCC2
viability, T/C [31]: 30.1% | viability, T/C [32]: 27.8% | viability, T/C [1]: 23.9% | viability, T/C [2]: 18.8% | viability, T/C [3]: 19.3% | viability, T/C [4]: 17.5% | viability, T/C [33]: 16.2% | viability, T/C [34]: 19.3% | viability, T/C [7]: 16.2% | viability, T/C [8]: 16.8% | viability, T/C [9]: 13.7% | viability, T/C [10]: 16.5% | viability, T/C [35]: 13.8% | viability, T/C [36]: 11% | viability, T/C [13]: 14.3% | viability, T/C [14]: 12.4% | viability, T/C [15]: 8.81% | viability, T/C [16]: 10.8% | viability, T/C [37]: 10.8% | viability, T/C [38]: 10% | viability, T/C [19]: 10.5% | viability, T/C [20]: 9.19% | viability, T/C [21]: 9.26% | viability, T/C [22]: 10.8% | viability, T/C [39]: 10.8% | viability, T/C [40]: 8.24% | viability, T/C [25]: 9.03% | viability, T/C [26]: 9.34% | viability, T/C [27]: 11.1% | viability, T/C [28]: 10.5%
